Experimental data published in US9321798B2, “Phosphoramidite derivatives of gemcitabine for use in the treatment of cancer” (NuCana BioMed Limited, priority 2010, dated 2016).

Test system: Human colon cancer cell line HRT18
Assay: MTT cytotoxicity / cell proliferation assay in HRT18 colon tumour cell line
Assay type: cell-based
Settings: HRT-18, HRT18 cells, 72 h incubation, 0.128-2000 nM, read-out: EC50 (nM) Colorectal cell HRT18
From the text: The compounds can be assayed by many in vitro or in vivo methods, but in the first instance a cell proliferation assay is rapid and informative. Many tumour cell lines can be used for the assay, we herein report typical data for target compounds in HRT18 colon tumour cell line, using standard MTT assay methods, typical in many laboratories.
Human colon cancer cell line HRT18 were purchased from the European Collection of Animal Cell Cultures (ECACC, Salisbury, England). Cytoxicity assay was based on MTT assay as we previously reported. The method is based on the ability of viable mitochondria to convert MTT, a soluble tetrazolium salt (3-[4,5-dimethylthiazd-2-yl]-2,5-diphenyltetrazolium bromide) into an insoluble formazan precipitate that is dissolved and quantified by spectrophotometry. A 96-well culture cell culture plate was used. Cells were counted with a haemocytomete counting chamber and a specific number (4000 per well) of cells were seeded to each well with culture medium (DMEM). Compounds, dissolved in DMSO, were series diluted (1:5) in culture medium, to cover a final concentration range between 0.128 and 2000 nM. The culture plate was incubated for 72 h at 37° C. The cells were washed twice with BSS. A solution of MTT in 0.5 mg/mL in culture medium was added into each well. The culture plate was then incubated at 37° C. for 4 h. MTT was then removed by aspiration. The crystals produced by MTT reagent within the cells were then extracted by the addition of 100 µL of Triton X100 (10% in water). The cells were incubated at 4° C. for 24 h. The absorbance of the colorimetric products was then measured at a wavelength of 540 nm using a spectrophotometer (Titertecek).

SMILES | EC50 [nM]
C[C@H](NP(=O)(N[C@@H](C)C(=O)OCC(C)(C)C)OC[C@H]1O[C@@H](n2ccc(N)nc2=O)C(F)(F)C1O)C(=O)OCC(C)(C)C (stereo partly drawn) [CPF460] | 1.6
C[C@H](NP(=O)(N[C@@H](C)C(=O)OC1CCCCC1)OC[C@H]1O[C@@H](n2ccc(N)nc2=O)C(F)(F)C1O)C(=O)OC1CCCCC1 (stereo partly drawn) [CPF458] | 31
C[C@H](NP(=O)(N[C@@H](C)C(=O)OCc1ccccc1)OC[C@H]1O[C@@H](n2ccc(N)nc2=O)C(F)(F)C1O)C(=O)OCc1ccccc1 (stereo partly drawn) [CPF457, 2′-Deoxy-2′,2′-difluoro-D-cytidine-5′-O-bis(benzoxy-L-alaninyl)] phosphate] | 14
Nc1ccn([C@@H]2O[C@H](CO)[C@@H](O)C2(F)F)c(=O)n1 [Gemcitabine, gemcitabine] | 64
CCOC(=O)[C@H](C)NP(=O)(N[C@@H](C)C(=O)OCC)OC[C@H]1O[C@@H](n2ccc(N)nc2=O)C(F)(F)C1O (stereo partly drawn) [CPF459, 2′-Deoxy-2′,2′-difluoro-D-cytidine-5′-O-bis(ethoxy-L-alaninyl)phosphate] | 42
CC(C)OC(=O)[C@H](C)NP(=O)(N[C@@H](C)C(=O)OC(C)C)OC[C@H]1O[C@@H](n2ccc(N)nc2=O)C(F)(F)C1O (stereo partly drawn) [CPF461] | 3.2
